23 molecules from US8629168B2, “Benzoxazoles and oxazolopyridines being useful as janus kinases inhibitors” (priority 2006, dated 2014) can be followed below.

SMILES strings stand for the structures.

The assay addresses T1, GST-JAK2(808-1132) (Homo sapiens, UniProt O60674).
T1 construct: GST-JAK2(808-1132) is purchased from Invitrogen; purchased Invitrogen (Carlsbad, USA) #4288
Nature of the assay: EPK JAK/TYK-kinase family profiling assay (Caliper mobility shift), JAK2. The assay is classed as biochemical. The following applies: Caliper mobility shift assay of Example 187, 20 μM ATP, read-out: IC50 with Test in present Example. From the text: All four kinases of the JAK/TYK-kinase family are used as purified recombinant GST-fusion proteins, containing the active kinase domains. GST-JAK1(866-1154), GST-JAK3(811-1124), and GST-TYK2(888-1187) are expressed and purified by affinity chromatography. GST-JAK2(808-1132) is purchased from Invitrogen (Carlsbad, USA, #4288).
The kinase assays are based on the Caliper mobility shift assay using the LabChip 3000 systems. This technology is similar to capillary electrophoresis and uses charge driven separation of substrate and product in a microfluidic chip.
All kinase reactions are performed in 384 well microtiter plates in a total reaction volume of 18 μl. The assay plates are prepared with 0.1 μl per well of test compound in the appropriate test concentration, as described under the section “preparation of compound dilutions”. The reactions are started by combining 9 μl of substrate mix (consisting of peptide and ATP) with 9 μl of kinase dilution. The reactions are incubated for 60 minutes at 30° C. and stopped by adding 70 μl of stop buffer (100 mM Hepes, 5% DMSO, 0.1% Coating reagent, 10 mM EDTA, 0.015% Brij 35).
Fluorescently labeled synthetic peptides are used as substrates in all reactions. […] Specific assay conditions are described in Table 1:
The terminated reactions are transferred to a Caliper LabChip 3000 reader (Caliper Life Sciences, Mountain View, Calif., USA) and the turnover of each reaction is measured by determining the substrate/product ratio.
Test compounds are dissolved in DMSO (10 mM) and transferred into 1.4 mL flat bottom or V-shaped Matrix tubes carrying a unique 2D matrix chip by individual compound hubs. The numbers of these chips are distinctively linked to the individual compound identification numbers. The stock solutions are stored at −20° C. if not used immediately. For the test procedure the vials are defrosted and identified by a scanner whereby a working sheet is generated that guides the subsequent working steps.
Compound dilutions are made in 96 well plates. This format enabled the assay of maximally 40 individual test compounds at 8 concentrations (single points) including 4 reference compounds. The dilution protocol includes the production of pre-dilution plates, master plates and assay plates:
Pre-dilution plates: 96 polypropylene well plates are used as pre-dilution plates. A total of 4 pre-dilution plates are prepared including 10 test compounds each on the plate positions A1-A10, one standard compound at A11 and one DMSO control at A12. All dilution steps are done on a Hamilton STAR robot (Hamilton, Co., Reno, Nev., USA).
Master plates: 100 μL of individual compound dilutions including standard compound and controls of the 4 “pre-dilution plates” are transferred into a 384 “master plate” including the following concentrations 1,820, […], 182, 54.6, 18.2, 5.46, 1.82 and 0.546 μM, respectively in 90% of DMSO.
Assay plates: Identical assay plates are then prepared by pipetting 100 nL each of compound dilutions of the master plates into 384-well “assay plates”. In the following the compounds are mixed with 9 μL of assays components plus 9 μL enzyme corresponding to a 1:181 dilution steps enabling the final concentration of 10, 3.0, 1.0, 0.3, 0.1, 0.03, 0.01 and 0.003 μM, respectively. The preparation of the master plates are handled by the Matrix PlateMate Plus robot (Thermo Fisher Scientific, Handforth, Cheshire, United Kingdom) and replication of assay plates by the HummingBird robot (Genomic Solutions, Inc., Ann Arbor, Mich., USA).

T1 sequence (O60674 808-1132): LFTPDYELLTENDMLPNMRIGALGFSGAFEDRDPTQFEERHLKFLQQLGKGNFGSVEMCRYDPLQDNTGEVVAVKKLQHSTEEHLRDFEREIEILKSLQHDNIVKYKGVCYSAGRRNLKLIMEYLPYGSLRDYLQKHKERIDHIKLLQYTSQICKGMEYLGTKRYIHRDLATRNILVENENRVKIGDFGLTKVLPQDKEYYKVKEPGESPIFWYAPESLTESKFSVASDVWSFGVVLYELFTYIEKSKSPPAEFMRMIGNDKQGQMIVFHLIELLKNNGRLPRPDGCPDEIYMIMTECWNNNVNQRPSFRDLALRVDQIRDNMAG

For `COc1cc(Nc2nc3cccc(-c4ccc(CN5CCOCC5)cc4)c3o2)cc(OC)c1OC` [Example 138, [7-(4-Morpholin-4-ylmethyl-phenyl)-benzooxazol-2-yl]-(3,4,5-trimethoxy-phenyl)-amine], the half-inhibitory concentration (IC50) (as a rule, the midpoint of a concentration-inhibition curve) stood at 14 nM. The value for `CC(=O)NC1Cc2ccc(Nc3nc4cccc(-c5ccc(CN6CCOCC6)c(F)c5)c4o3)cc2C1` (centres unmarked) [Example 132, N-{5-[7-(3-Fluoro-4-morpholin-4-ylmethyl-phenyl)-benzooxazol-2-ylamino]-indan-2-yl}-acetamide] was 21 nM; that for `C[S+]([O-])c1ccc(Nc2nc3cccc(-c4ccc(CC(=O)N5CCOCC5)cc4)c3o2)cc1` (centres unmarked) [Example 135, 2-{4-[2-(4-Methanesulfinyl-phenylamino)-benzooxazol-7-yl]-phenyl}-1-morpholin-4-yl-ethanone] was 18 nM; that for `Cc1cc(Nc2nc3cccc(-c4ccc(CN5CCOCC5)c(F)c4)c3o2)ccc1C(=O)N(C)C` [Example 64, 4-[7-(3-Fluoro-4-morpholin-4-ylmethyl-phenyl)-benzooxazol-2-ylamino]-2,N,N-trimethyl-benzamide] was 4.2 nM. As for `CCN1CCN(c2ccc(Nc3nc4cccc(-c5ccc(S(C)(=O)=O)cc5)c4o3)cc2C)CC1` [Example 92, [4-(4-Ethyl-piperazin-1-yl)-3-methyl-phenyl]-[7-(4-methanesulfonyl-phenyl)-benzooxazol-2-yl]-amine], the half-maximal inhibitory concentration (IC50) was 10.1 nM.

Take `CCN1CCN(c2ccc(Nc3nc4cccc(-c5ccc(C(=O)N6CCOCC6)c(F)c5)c4o3)cc2C)CC1` [Example 94, (4-{2-[4-(4-Ethyl-piperazin-1-yl)-3-methyl-phenylamino]-benzooxazol-7-yl}-2-fluoro-phenyl)-morpholin-4-yl-methanone]: the half-maximal inhibitory concentration (IC50) stood at 6.9 nM. The value for `Cc1cc(-c2cccc3nc(Nc4ccc(N5CCN(CCN(C)C)CC5)c(C)c4)oc23)ccc1C(=O)N1CCOCC1` [Example 102, [4-(2-{4-[4-(2-Dimethylamino-ethyl)-piperazin-1-yl]-3-methyl-phenylamino}-benzooxazol-7-yl)-2-methyl-phenyl]-morpholin-4-yl-methanone] was 5.65 nM; that for `Cc1cc(Nc2nc3cccc(-c4ccc(C(=O)N5CCOCC5)cc4F)c3o2)ccc1C(=O)N(C)C` [Example 76, 4-{7-[2-Fluoro-4-(morpholine-4-carbonyl)-phenyl]-benzooxazol-2-ylamino}-2,N,N-trimethyl-benzamide] was 13 nM.

`Cc1cc(-c2cccc3nc(Nc4ccc(N5CCN(C6CC6)CC5)c(C)c4)oc23)ccc1C(=O)N1CCS(=O)(=O)CC1` [Example 162, (4-{2-[4-(4-Cyclopropyl-piperazin-1-yl)-3-methyl-phenylamino]-benzooxazol-7-yl}-2-methyl-phenyl)-(1,1-dioxo-1lambda*6*-thiomorpholin-4-yl)-methanone]: the half-maximal inhibitory concentration (IC50) came to 8.9 nM.

In the case of `COCCNC(=O)c1ccc(Nc2nc3cccc(-c4ccc(CC(=O)N5CCOCC5)cc4)c3o2)cc1` [Example 147, N-(2-Methoxy-ethyl)-4-{7-[4-(2-morpholin-4-yl-2-oxo-ethyl)-phenyl]-benzooxazol-2-ylamino}-benzamide], the IC50 was 28 nM.

As to `Cc1cc(Nc2nc3cccc(-c4cc(F)c(CN5CCOCC5)c(F)c4)c3o2)ccc1C(=O)NCCN(C)C` [Example 122, 4-[7-(3,5-Difluoro-4-morpholin-4-ylmethyl-phenyl)-benzooxazol-2-ylamino]-N-(2-dimethylamino-ethyl)-2-methyl-benzamide], the IC50 turned out to be 11.1 nM. Take `Cc1cc(Nc2nc3cccc(-c4ccc(CN5CCOCC5)c(C(F)(F)F)c4)c3o2)ccc1C(=O)N(C)C` [Example 86, 2,N,N-Trimethyl-4-[7-(4-morpholin-4-ylmethyl-3-trifluoromethyl-phenyl)-benzooxazol-2-ylamino]-benzamide]: the IC50 is 79 nM. The value for `Cc1cc(-c2cccc3nc(Nc4ccc(N5CCN(C(C)C)CC5)c(C)c4)oc23)ccc1C(=O)N1CCOCC1` [Example 106, (4-{2-[4-(4-Isopropyl-piperazin-1-yl)-3-methyl-phenylamino]-benzooxazol-7-yl}-2-methyl-phenyl)-morpholin-4-yl-methanone] was 6.15 nM; that for `CN(C)C(=O)c1ccc(Nc2nc3cccc(-c4ccc(S(N)(=O)=O)cc4)c3o2)cc1` [Example 146, N,N-Dimethyl-4-[7-(4-sulfamoyl-phenyl)-benzooxazol-2-ylamino]-benzamide] was 19.5 nM. On to `CNC(=O)c1ccc(Nc2nc3cccc(-c4cc(F)c(CN5CCOCC5)c(F)c4)c3o2)cc1C` [Example 120, 4-[7-(3,5-Difluoro-4-morpholin-4-ylmethyl-phenyl)-benzooxazol-2-ylamino]-2,N-dimethyl-benzamide], for which the IC50 amounted to 39 nM. As for `COc1ccc(Nc2nc3cccc(-c4ccc(C(=O)N5CCOCC5)c(C)c4)c3o2)cc1N1CCN(C)CC1` [Example 127, (4-{2-[4-Methoxy-3-(4-methyl-piperazin-1-yl)-phenylamino]-benzooxazol-7-yl}-2-methyl-phenyl)-morpholin-4-yl-methanone], the figure is 30 nM. The value for `Cc1cc(Nc2nc3cccc(-c4ccc(CN5CCOCC5)c(F)c4)c3o2)ccc1C(=O)N1CCCC1` [Example 67, {4-[7-(3-Fluoro-4-morpholin-4-ylmethyl-phenyl)-benzooxazol-2-ylamino]-2-methyl-phenyl}-pyrrolidin-1-yl-methanone] was 14 nM.

Regarding `Cc1cc(Nc2nc3cccc(-c4cc(F)c(CN5CCS(=O)(=O)CC5)c(F)c4)c3o2)ccc1N1CCN(C(C)C)CC1` [Example 101, {7-[4-(1,1-Dioxo-1lambda*6*-thiomorpholin-4-ylmethyl)-3,5-difluoro-phenyl]-benzooxazol-2-yl}-[4-(4-isopropyl-piperazin-1-yl)-3-methyl-phenyl]-amine], the half-maximal inhibitory concentration (IC50) was 3.6 nM.

Regarding `Cc1cc(Nc2nc3cccc(-c4cc(F)c(CN5CCOCC5)c(F)c4)c3o2)cn(C)c1=O` [Example 161, 5-[7-(3,5-Difluoro-4-morpholin-4-ylmethyl-phenyl)-benzooxazol-2-ylamino]-1,3-dimethyl-1H-pyridin-2-one], the IC50 worked out at 80 nM. The value for `CCN1CCN(c2ccc(Nc3nc4cccc(-c5ccc(CN6CCOCC6)c(F)c5)c4o3)cc2C)CC1` [Example 87, [4-(4-Ethyl-piperazin-1-yl)-3-methyl-phenyl]-[7-(3-fluoro-4-morpholin-4-ylmethyl-phenyl)-benzooxazol-2-yl]-amine] was 4.8 nM; that for `Cc1cc(Nc2nc3cccc(-c4ccc(CC(=O)N5CCS(=O)(=O)CC5)cc4)c3o2)ccc1C(=O)N(C)C` [Example 77, 4-(7-{4-[2-(1,1-Dioxo-1lambda*6*-thiomorpholin-4-yl)-2-oxo-ethyl]-phenyl}-benzooxazol-2-ylamino)-2, N,N-trimethyl-benzamide] was 3.3 nM; that for `CN1CCN(c2ccc(Nc3nc4cccc(-c5ccc(S(N)(=O)=O)cc5)c4o3)cc2)CC1` [Example 93, 4-{2-[4-(4-Methyl-piperazin-1-yl)-phenylamino]-benzooxazol-7-yl}-benzenesulfonamide] was 52 nM. For `Cc1cc(Nc2nc3cccc(-c4ccc(C(C)(C)C(=O)N5CCOCC5)cc4)c3o2)ccc1N1CCN(C2CC2)CC1` [Example 157, 2-(4-{2-[4-(4-Cyclopropyl-piperazin-1-yl)-3-methyl-phenylamino]-benzooxazol-7-yl}-phenyl)-2-methyl-1-morpholin-4-yl-propan-1-one], the 50% inhibitory concentration (IC50) is 11.7 nM.
